# Active and inactive are the calls of the source.
# Key:
# [1] = bead-based luminescence quenchers, dual-tagged ARNT – biochemical, AlphaScreen, cherry-pick, artefact control for ARNT-TACC3 interaction inhibitor project, dose response (AID 651705); type: functional;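 also: AlphaScreen bead proximity signal that flags compounds interfering with the detection technology; potency reflects signal decrease which marks the compound as an assay artifact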
# [2] = target: T1, Tyrosine-protein phosphatase non-receptor type 5 (Homo sapiens, UniProt P54829); assay: PTPN5 enzyme inhibition – biochemical, fluorescence intensity, uHTS hits, confirmation (AID 602372); type: functional; settings: read-out: IC50_Mean
# T1 sequence (P54829 whole entry): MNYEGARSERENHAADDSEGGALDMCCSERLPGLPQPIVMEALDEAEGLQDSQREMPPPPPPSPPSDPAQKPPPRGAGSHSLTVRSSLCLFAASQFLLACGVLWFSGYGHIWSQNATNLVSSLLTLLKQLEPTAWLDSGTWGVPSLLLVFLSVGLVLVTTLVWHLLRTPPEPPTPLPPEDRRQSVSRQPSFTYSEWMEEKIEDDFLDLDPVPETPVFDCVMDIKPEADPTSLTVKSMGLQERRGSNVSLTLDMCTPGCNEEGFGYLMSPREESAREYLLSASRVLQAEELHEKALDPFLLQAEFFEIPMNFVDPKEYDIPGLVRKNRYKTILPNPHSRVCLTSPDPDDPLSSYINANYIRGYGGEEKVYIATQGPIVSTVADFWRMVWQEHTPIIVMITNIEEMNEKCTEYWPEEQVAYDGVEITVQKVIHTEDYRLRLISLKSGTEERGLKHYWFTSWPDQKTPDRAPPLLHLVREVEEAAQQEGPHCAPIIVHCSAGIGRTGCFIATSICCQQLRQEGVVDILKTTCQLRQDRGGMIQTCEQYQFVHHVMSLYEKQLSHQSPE
# [3] = target: T2, Tyrosine-protein phosphatase non-receptor type 11 (Homo sapiens, UniProt Q06124); assay: PTPN11 enzyme inhibitors – biochemical, selectivity assay for STEP inhibitor project, dose response (AID 602367); type: functional; settings: read-out: IC50_Mean
# T2 sequence (Q06124 whole entry): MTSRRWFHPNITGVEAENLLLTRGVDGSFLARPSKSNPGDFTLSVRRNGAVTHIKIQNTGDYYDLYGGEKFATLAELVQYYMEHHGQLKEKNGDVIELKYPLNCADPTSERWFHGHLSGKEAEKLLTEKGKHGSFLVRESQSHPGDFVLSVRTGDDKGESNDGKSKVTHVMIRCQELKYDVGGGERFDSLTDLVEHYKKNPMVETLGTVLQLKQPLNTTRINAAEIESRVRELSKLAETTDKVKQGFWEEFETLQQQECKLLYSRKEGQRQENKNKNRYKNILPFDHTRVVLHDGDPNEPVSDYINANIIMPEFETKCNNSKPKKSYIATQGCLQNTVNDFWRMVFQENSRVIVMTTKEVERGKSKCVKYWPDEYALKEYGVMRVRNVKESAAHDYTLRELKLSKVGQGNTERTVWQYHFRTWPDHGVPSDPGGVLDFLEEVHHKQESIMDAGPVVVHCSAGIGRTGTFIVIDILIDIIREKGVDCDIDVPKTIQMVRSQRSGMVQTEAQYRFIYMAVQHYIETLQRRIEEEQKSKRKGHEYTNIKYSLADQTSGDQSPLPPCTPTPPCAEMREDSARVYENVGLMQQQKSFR
# [4] = target: Dual specificity protein phosphatase 3 (Homo sapiens, UniProt P51452); assay: VHR phosphatase inhibition, dose response, selectivity assay for STEP inhibitor project, biochemical (AID 602374); type: functional; settings: read-out: IC50_Mean
# Streptococcus = assay: GAS UMAA2166 growth inhibition – luminescence, BacTiterGlo, counter-screen for streptokinase expression inhibitor project, dose response (AID 1915); type: functional, organism-based;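 also: potency for reduction of bacterial viability or growth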
# [5] = target: T3, Low molecular weight phosphotyrosine protein phosphatase (Homo sapiens, UniProt P24666); type: functional; settings: read-out: IC50_Mean;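 also: Dose-response confirmation assay measuring inhibition of LMPTP enzyme activity by fluorescence intensity read-out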
# T3 sequence (P24666 whole entry): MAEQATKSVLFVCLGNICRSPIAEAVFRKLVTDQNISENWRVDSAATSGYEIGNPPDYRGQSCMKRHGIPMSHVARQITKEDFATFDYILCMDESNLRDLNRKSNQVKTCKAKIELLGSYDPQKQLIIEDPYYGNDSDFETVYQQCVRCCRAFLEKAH
# [6] = system: Streptococcus sp. 'group A'; assay: Streptococcus pyogenes SK(-)GAS viability under kanamycin – luminescence, BacTiterGlo, confirmation, counter-screen for streptokinase expression inhibitor project, dose response (AID 1900); type: functional, organism-based
# [7] = target: T4, Orexin/Hypocretin receptor type 1 (Homo sapiens, UniProt O43613); assay: Homogeneous Time Resolved Fluorescence (HTRF)-based cell-based high throughput dose response assay for antagonists of the orexin 1 receptor (OX1R; HCRTR1). [Related pubchem assays (depositor defined):AID434989, AID435008, AID463079, AID485270, AID492963, AID492964, AID492965, AID493232, AID504717, AID504718]; type: functional
# T4 sequence (O43613 whole entry): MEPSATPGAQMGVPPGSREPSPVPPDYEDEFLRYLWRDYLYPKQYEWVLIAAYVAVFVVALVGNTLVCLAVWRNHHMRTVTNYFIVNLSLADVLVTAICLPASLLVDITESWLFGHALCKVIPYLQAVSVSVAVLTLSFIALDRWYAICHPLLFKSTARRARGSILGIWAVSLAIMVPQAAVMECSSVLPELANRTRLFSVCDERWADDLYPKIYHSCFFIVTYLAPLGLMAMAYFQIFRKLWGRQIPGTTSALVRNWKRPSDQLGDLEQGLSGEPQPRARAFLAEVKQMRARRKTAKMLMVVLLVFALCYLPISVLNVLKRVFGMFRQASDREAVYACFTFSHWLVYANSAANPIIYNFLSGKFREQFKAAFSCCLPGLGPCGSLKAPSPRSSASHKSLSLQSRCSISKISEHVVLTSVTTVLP
# [8] = (§1) Counterscreen for antagonists of the orexin 1 receptor (OX1R; HCRTR1): Fluorescence-based cell-based high throughput dose response assay to identify antagonists of the parental CHO cell line. [Related pubchem assays (depositor defined):AID434989, AID435008, AID463079, AID485270, AID492963, AID492964, AID492965, AID493232, AID504699, AID504701]; type: functional
# [9] = target: T4, Orexin/Hypocretin receptor type 1; assay: Fluorescence-based cell-based high throughput dose response assay for antagonists of the orexin 1 receptor (OX1R; HCRTR1). [Related pubchem assays (depositor defined):AID434989, AID435008, AID463079, AID485270, AID492963, AID492964, AID492965, AID493232, AID504717, AID504718]; type: functional
# [10] = A Cell Based Secondary Assay To Explore Cytotoxicity of Compounds that Sensitize Mycobacterium Tuberculosis to Beta-Lactam Antibiotics.; type: functional
# Orexin receptor type 2 [11] = target: T5, Orexin receptor type 2 (Homo sapiens, UniProt O43614); assay: Counterscreen assay for antagonists of the orexin 1 receptor (OX1R; HCRTR1): Homogeneous Time Resolved Fluorescence (HTRF)-based cell-based dose response assay for antagonists of the orexin 2 receptor (OX2R; HCRTR2), run by assay provider.; type: functional
# T5 sequence (O43614 whole entry): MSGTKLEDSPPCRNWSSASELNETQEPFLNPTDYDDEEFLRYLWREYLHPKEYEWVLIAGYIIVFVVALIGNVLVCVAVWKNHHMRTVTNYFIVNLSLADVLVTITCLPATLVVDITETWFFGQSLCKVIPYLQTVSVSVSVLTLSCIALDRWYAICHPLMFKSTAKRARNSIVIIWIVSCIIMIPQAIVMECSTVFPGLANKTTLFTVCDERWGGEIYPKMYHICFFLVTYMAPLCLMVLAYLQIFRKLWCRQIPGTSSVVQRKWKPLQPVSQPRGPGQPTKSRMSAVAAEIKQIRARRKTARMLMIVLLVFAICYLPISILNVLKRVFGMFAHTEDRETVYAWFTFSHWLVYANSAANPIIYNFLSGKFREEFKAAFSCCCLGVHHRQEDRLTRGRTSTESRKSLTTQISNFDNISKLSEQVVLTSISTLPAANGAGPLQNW
# CHO-K1 = assay: as §1, with “Homogeneous time resolved fluorescence (HTRF)-based” for “Fluorescence-based”, “cell-based” for “cell-based high throughput”, “CHO-K1” for “CHO”; type: functional; settings: Cricetulus griseus;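 also: potency for inhibition of ATP-stimulated IP1 production as antagonists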
# Orexin receptor type 2 [12] = target: T5, Orexin receptor type 2; assay: Counterscreen assay for antagonists of the orexin 1 receptor (OX1R; HCRTR1): Fluorescence-based cell-based dose response assay for antagonists of the orexin 2 receptor (OX2R; HCRTR2), run by assay provider.; type: functional
# [13] = target: T6, Aryl hydrocarbon receptor (Homo sapiens, UniProt P35869); settings: Potency;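 also: confirmatory quantitative high-throughput screen measuring activation of the AhR signaling pathway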
# T6 sequence (P35869 whole entry): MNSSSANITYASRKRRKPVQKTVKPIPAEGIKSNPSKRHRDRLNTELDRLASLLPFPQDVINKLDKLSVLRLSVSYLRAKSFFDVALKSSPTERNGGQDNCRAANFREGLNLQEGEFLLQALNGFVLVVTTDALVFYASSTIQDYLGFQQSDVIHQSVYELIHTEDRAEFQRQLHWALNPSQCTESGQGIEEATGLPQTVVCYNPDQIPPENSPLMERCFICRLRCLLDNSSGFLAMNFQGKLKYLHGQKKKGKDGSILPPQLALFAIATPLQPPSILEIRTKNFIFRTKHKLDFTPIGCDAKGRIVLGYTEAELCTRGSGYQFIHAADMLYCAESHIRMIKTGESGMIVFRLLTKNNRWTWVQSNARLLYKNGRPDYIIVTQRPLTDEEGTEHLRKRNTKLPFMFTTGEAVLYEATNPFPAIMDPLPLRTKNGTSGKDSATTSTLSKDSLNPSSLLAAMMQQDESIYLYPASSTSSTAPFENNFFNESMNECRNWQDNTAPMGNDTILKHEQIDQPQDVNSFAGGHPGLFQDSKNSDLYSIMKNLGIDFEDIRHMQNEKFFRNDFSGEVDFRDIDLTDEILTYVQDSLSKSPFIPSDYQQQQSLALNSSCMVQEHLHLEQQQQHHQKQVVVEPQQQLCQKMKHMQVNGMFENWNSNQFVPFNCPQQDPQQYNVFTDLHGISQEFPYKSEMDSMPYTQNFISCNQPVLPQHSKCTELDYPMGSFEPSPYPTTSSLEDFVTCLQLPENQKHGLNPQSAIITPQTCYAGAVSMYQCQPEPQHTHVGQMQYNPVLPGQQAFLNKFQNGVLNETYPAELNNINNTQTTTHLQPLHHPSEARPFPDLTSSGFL
# Interleukin-8 = target: T7, Interleukin-8 (Homo sapiens, UniProt P10145); assay: Dose Response confirmation of uHTS small molecule hits for cystic fibrosis induced NFkb Inhibitors in a PAF-induced IL8 counterscreen.; type: functional; settings: read-out: IC50_Mean
# T7 sequence (P10145 whole entry): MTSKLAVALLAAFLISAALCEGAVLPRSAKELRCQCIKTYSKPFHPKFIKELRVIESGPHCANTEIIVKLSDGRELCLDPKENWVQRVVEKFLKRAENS
# [14] = target: T8, Adenosylmethionine-8-amino-7-oxononanoate aminotransferase (Mycobacterium tuberculosis, UniProt P9WQ81); assay: Mycobacterium tuberculosis BioA enzyme inhibitor Measured in Biochemical System Using Plate Reader - 2163-02_Inhibitor_Dose_CherryPick_Activity.; type: functional, Mycobacterium tuberculosis UT205
# T8 sequence (P9WQ81 whole entry): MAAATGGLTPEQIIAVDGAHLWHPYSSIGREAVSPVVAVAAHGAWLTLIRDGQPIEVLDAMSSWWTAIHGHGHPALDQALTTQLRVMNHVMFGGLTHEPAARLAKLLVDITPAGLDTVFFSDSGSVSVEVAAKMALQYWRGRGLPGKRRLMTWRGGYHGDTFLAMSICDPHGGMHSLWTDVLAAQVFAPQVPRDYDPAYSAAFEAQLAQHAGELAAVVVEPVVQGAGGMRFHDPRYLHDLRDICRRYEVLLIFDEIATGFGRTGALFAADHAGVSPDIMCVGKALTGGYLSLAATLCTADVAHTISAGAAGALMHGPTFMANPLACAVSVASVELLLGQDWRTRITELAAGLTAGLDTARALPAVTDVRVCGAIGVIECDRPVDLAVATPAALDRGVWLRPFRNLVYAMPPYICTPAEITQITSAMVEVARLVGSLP
# Dual specificity protein phosphatase 3, sequence (P51452 whole entry): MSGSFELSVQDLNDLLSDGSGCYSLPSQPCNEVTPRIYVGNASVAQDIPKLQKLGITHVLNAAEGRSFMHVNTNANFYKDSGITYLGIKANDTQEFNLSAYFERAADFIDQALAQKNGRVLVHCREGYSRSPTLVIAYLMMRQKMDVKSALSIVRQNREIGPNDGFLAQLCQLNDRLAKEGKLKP
smiles,measurement,setting,value
COc1ccc(C(=O)Oc2cccc3cccnc23)cc1[N+](=O)[O-],AC50,[1],135 µM (active)
O=C(Nc1nnc(C2=COCCO2)o1)c1ccc(Cl)cc1,AC50,[1],85.8 µM (active)
CN1CCC2(CC1)N=C(c1ccc(F)cc1)C(=S)N2,IC50,[2],41.6 µM (inactive)
same,IC50,[3],8.94 µM (active)
same,IC50,[4],2.69 µM (active)
C=CC1=C(C(=O)O)N2C(=O)C(NC(=O)Cc3ccccc3)C2SC1 (stereo not given),EC50,Streptococcus,0.269 µM (active)
same,IC50,[2],52.9 µM (inactive)
same,IC50,[5],42.8 µM (inactive)
same,IC50,[3],4.42 µM (active)
same,IC50,[4],7.17 µM (active)
same,EC50,[6],0.169 µM (active)
C=CCn1c(SCc2ccc(C(=O)Nc3nccs3)cc2)nnc1-c1ccc(C)c(Cl)c1,IC50,[7],0.919 µM (active)
same,IC50,[8],18.3 µM (inactive)
same,IC50,[9],4.95 µM (active)
same,CC50,[10],33 µM (active)
same,IC50,Orexin receptor type 2 [11],> 50 µM (inactive)
same,IC50,CHO-K1,> 66.2 µM (inactive)
same,IC50,Orexin receptor type 2 [12],18 µM (inactive)
CCOc1ccccc1C(=O)NCCNC(=O)c1ccccc1OCC,IC50,[7],4.15 µM (active)
same,IC50,[8],> 49.8 µM (inactive)
same,IC50,[9],3.27 µM (active)
same,IC50,Orexin receptor type 2 [11],2.78 µM (active)
same,IC50,CHO-K1,> 66.2 µM (inactive)
same,IC50,Orexin receptor type 2 [12],> 88.8 µM (inactive)
COc1ccc(OC)c(S(=O)(=O)NCC(c2ccco2)N2CCc3ccccc32)c1 (stereo not given),IC50,[7],2.3 µM (active)
same,IC50,[8],> 49.8 µM (inactive)
same,IC50,[9],2 µM (active)
same,IC50,Orexin receptor type 2 [11],> 50 µM (inactive)
same,IC50,CHO-K1,> 66.2 µM (inactive)
same,IC50,Orexin receptor type 2 [12],10.5 µM (inactive)
CCNc1nc(NCC)nc(SC)n1,AC50,[13],0.447 µM (inconclusive)
C#CCN(C[C@@H]1[C@@H](OC(=O)NC2CC2)[C@@H](OC(=O)NC2CC2)Cn2c(=O)ccc(=O)n21)S(=O)(=O)c1ccc(C)cc1,IC50,Interleukin-8,6.06 µM (active)
CN1c2ccc(-c3cccc(F)c3)cc2[C@H]2[C@H](CCN2C(=O)c2ccc3c(c2)OCO3)[C@H]1CO,AC50,[14],0.075 µM (active)
CO[C@H]1CN(C)C(=O)c2ccc(NC(C)=O)cc2OC[C@@H](C)N(C(=O)C2CCCCC2)C[C@H]1C,AC50,[14],6.6 µM (active)
Cc1c(NC(=O)c2cc3ccccc3o2)cccc1-n1cnnn1,AC50,[14],6.18 µM (active)
